Test results taken from patent US12419308B2, “Phenylpyrazole insecticide compounds and compositions” (priority 2023, dated 2025).

Key:
Dermanyssus gallinae = test: Antiparasitic efficacy on live chickens with natural mite infestation; type: in vivo; details: by day 5 of treatment; 0.25% (w/v) spray, 7.5 mg/kg once daily for 5 days
Procedure: Two animals are treated with the compound of Example 1, and two animals are treated with Fipronil, while one animal is left untreated as a negative control. The infestation by D. gallinae is monitored by checking the density of mites in particular areas of the animal's bodies (feet, legs, and wings), comparing pre-treatment levels of infestation to post-treatment levels.
When all pests have been eliminated, a 100% pest control capability was achieved. In the case of some chemical products, when the pest was not fully eliminated, the disinfestation capacity was measured by averaging the number of infesting organisms located in three distinct areas of the treated animals, at the beginning of the treatment, and at the end of the treatment.

[1] = Egg concentration analysis from topically treated chickens; type: in vivo; details: eggs from Day 5
Procedure: One animal is left untreated as a negative control.
A modified and optimized QuEChERS protocol was employed to extract the compounds from eggs. The shell is manually removed, and then each egg is transferred to a clean beaker and homogenized with an electric mixer for small volumes. 5 grams of homogenized egg is put into a 50 mL Falcon tube, and 5 mL of water is added and the samples are shaken for 10 minutes. Next, 10 mL of acetonitrile is added and the samples are shaken again for 10 minutes. Then the roQ salts (4.0 g MgSO4, 1.0 g NaCl, 1.0 SCTD and 0.5 g SCDS, Phenomenex P/N KS08909) are added to each sample, and the mixture is well shaken for 10 minutes. Samples are then centrifuged at 2500 g for 5 minutes at room temperature, and the supernatant is transferred to an HPLC vial for analysis. The same HPLC-MS method is used as described above.
One egg from two chickens is analyzed: one chicken treated with Fipronil and one chicken treated with the Compound of Example 1. The eggs are both from Day 5. The results are shown in the following tables expressed as relative LC-MS peak area: […]

[2] = test system: adult worker honeybees, Apis mellifera L; test: Acute oral toxicity test in honeybees (OECD 213); type: in vivo
Procedure: Untreated 50% w/v sucrose solution with 0.2% of propanol-water solution (ratio 80%-20%) is used as a negative control.
The test item is diluted with aqueous sucrose solution 50% (w/v) to prepare the oral solutions. The bees used for the oral test are anesthetized with carbon dioxide for the time necessary to immobilize them and placed inside the test cages; 2 hours before the treatment they are starved. A volume of 200 μL (20 μL/bee) of treated diet is administered to each cage with a dispenser (e.g., a syringe without tip), weighed before and after filling.
The overall exposure period is 6 hours, during which consumption is monitored: the feeder is changed at the end of the six hours or once the treated diet has been consumed (usually within 3-4 hours). In both cases, the feeder is weighed and a new feeder with untreated 50% (w/v) sucrose solution is provided ad libitum, and the mean effective dose is calculated based on the actual consumption.

[3] = Plasma concentration analysis in topically treated chickens; details: Compound of Example 1 treatment, topical spray 7.5 mg/kg once daily
Procedure: To explore the therapeutic potential of the compounds of the present disclosure, live chickens with mite infestation (Dermanyssus gallinae) are treated topically with solutions of test compound, with Fipronil as a positive control. Test solutions are prepared by dissolving the test compound in a mixture of 2-butoxyethanol, ethanol, and water (7:2:1) to reach a final concentration of 0.25% (w/v).
The test solution is administered using a mechanical spray pump delivering 0.5 mL of solution per actuation. The test solution is sprayed over the entire surface of the animal's body from a distance of 10-20 centimeters, resulting in direct contact of the solution with the animal's skin. The dosage applied to each animal is 3 mL/kg, equivalent to 7.5 mg/kg (kg live weight). The dosage is achieved using six actuations of the spray per kg of body weight per day. The treatment is administered once daily for 5 days at 24 hours intervals. One animal is left untreated as a negative control.
Blood samples are taken from each animal before the first treatment (T=0), and at 24-hour intervals thereafter. Each egg produced after a treatment is collected for later analysis.
Plasma samples are derived from each blood sample using standard procedures immediately after blood collection. Plasma is stored frozen at −80° C. until the time of analysis. Samples are then thawed at room temperature and extraction is performed by solid phase extraction (SPE) (Strata-X 33. Polymeric Reversed Phase, 60 mg/3 mL, Phenomenex) on an aliquot of sample (100 μl) pretreated for protein precipitation with 300 μl of acetonitrile. After protein precipitation, the samples are well vortexed and then centrifuged (12000 rpm, 10 min, RT). Supernatant is collected and transferred to clean Falcon tubes and diluted with 3 ml of water. Strata-X columns are conditioned with 2 ml of methanol and with 2 ml of water. Samples are loaded after conditioning, and the columns are washed with 2 ml of water, and analytes are eluted with 2 nil of methanol, dried under nitrogen and then resuspended in 100 μl of acetonitrile for mass spectral analysis.
A Thermo Q-exactive mass spectrometer (Thermo Fisher Scientific, Waltham, MA) is used. The LC system, governed by Chromeleon X-press software, consists of a binary pump, a thermostated autosampler, and a column compartment, all Dionex Ultimate 3000 series modules (Thermo Fisher Scientific, Waltham, MA). A volume of 2 μL is injected for each sample. Chromatographic separation of analytes is conducted in reverse-phase chromatography. A Luna Omega 1.6 μm Polar (CIS, 2.1 mm×100 mm) is used, and the mobile phases are (A) water and (B) acetonitrile, both containing 0.1% v/v formic acid. […]
Plasma samples from Day 3 and Day 5 are analyzed.

## N#Cc1nn(-c2c(Cl)cc(C(F)(F)F)cc2Cl)c2nc(O)cc(C(F)(F)F)c12 [Example 1, 1-(2,6-dichloro-4-(trifluoromethyl)phenyl)-6-hydroxy-4-(trifluoromethyl)-1H-pyrazolo[3,4-b]pyridine-3-carbonitrile]
Dermanyssus gallinae
  Chickens free of mites: 100%
[1]
  Accumulation in eggs of treated chickens compared to Fipronil: substantially less accumulation in the eggs
[2]; group T1, dose 0.002 μg/bee
  % CM (4 hours): 0.0%
  % CM (24 hours): 0.0%
  % CM (48 hours): 0.0%
[2]; group T2, dose 0.004 μg/bee
  % CM (4 hours): 0.0%
  % CM (24 hours): 19.2%
  % CM (48 hours): 17.4%
[2]; group T3, dose 0.006 μg/bee
  % CM (4 hours): 0.0%
  % CM (24 hours): 15.4%
  % CM (48 hours): 13.0%
[3]; Chicken 3, 3 days
  Plasma concentration of analyte: 0.01 ppm
[3]; Chicken 3, 5 days
  Plasma concentration of analyte: 0.03 ppm
[3]; Chicken 4, 3 days
  Plasma concentration of analyte: 0.7 ppm
[3]; Chicken 4, 5 days
  Plasma concentration of analyte: 1.2 ppm
